Columns and labels:
[1] = system: Methylobacterium extorquens AM1; type: cell-based
Method: (§1) 1.6 Dodecane and α-Humulene Tolerance of M. extorquens AM1
M. extorquens AM1 precultures were cultured in test tubes with 5 ml methanol minimal medium (MM) for 48 h. The tolerance of M. extorquens AM1 towards 20% (v/v) dodecane was studied by growth comparison ( OD600) of cultures containing 15 ml MM and cultures with 12 ml MM and 3 ml dodecane. The cultures for the growth comparison with and without dodecane were inoculated from one preculture.

[2] = system: Methylobacterium extorquens AM1; assay: α-humulene tolerance of M. extorquens AM1 (growth rate comparison, OD600); type: cell-based; settings: FIG. 3
Method: as §1
The α-humulene tolerance was tested in two ways: tolerance towards α-humulene added directly to the aqueous phase and tolerance towards α-humulene dissolved in the organic dodecane layer. For the first experiment, pure α-humulene dissolved in ethanol was added to 100 ml baffled shaker flasks containing 15 ml MM with end concentrations of α-humulene of 1000, 500, 250, 100, 50, 25, 10 and 5 mg/L. Corresponding quantities of ethanol were added to the MM as negative controls. The flasks with the different α-humulene concentrations and the corresponding negative controls were inoculated with a preculture without α-humulene to an OD600 of 0.1. The OD600 was recorded over 30 h.
For the second said experiment, pure α-humulene was dissolved in dodecane and solutions with 1000, 500, 100, 50 and 10 mg/L α-humulene prepared. Two cultures each with 12 ml MM and 3 ml dodecane for each α-humulene concentration were inoculated to an OD600 of 0.1 from a preculture of M. extorquens AM1 without dodecane. Cultures with dodecane without α-humulene were used as negative controls. OD600 was measured over 30 h.
Terpenes often have toxic effects on bacteria. The toxicity of α-humulene to M. extorquens was studied by growth analyses in the presence of different α-humulene concentrations. […]

SMILES | toxic effects or influence on growth [1] | growth-inhibiting effect (growth rate μ compared with μmax without α-humulene) ([2]; α-humulene dissolved directly in the aqueous phase, even at concentrations of 1 g/l) | influence on growth (growth rate μ compared with μmax without α-humulene) ([2]; α-humulene dissolved in the dodecane phase as second organic phase)
CCCCCCCCCCCC [dodecane] | without any toxic effects or influence on growth being observable |  | 
C/C1=C\CC/C(C)=C/CC(C)(C)/C=C/C1 [α-humulene] |  | only minimal growth-inhibiting effects | slightly lesser influence than in the aqueous phase
